Patent US8829007B2 (priority 2009, dated 2014)

The compounds below were run on influenza A virus (A/PR/8/34) (assay: microbe, parasite or virus in culture). Settings: Influenza A virus, PR/8, MDCK, MDCK cells infected with A/PR/8/34, cell protection (CPE); read-out: IC50 (mean all).
Format: cell-based

Structure (SMILES) | IC50 [µM]
COCCOC(=O)N1CCC[C@@H](CNc2nc(-c3c[nH]c4ncc(Cl)cc34)ncc2F)C1 [Compound 24, (S)-2-methoxyethyl 3-((2-(5-chloro-1H-pyrrolo[2,3-b]pyridin-3-yl)-5-fluoropyrimidin-4-ylamino)methyl)piperidine-1-carboxylate] | > 20
C[C@H](CO)CN1CCCC(CNc2nc(-c3c[nH]c4ncc(Cl)cc34)ncc2F)C1 (some centres unmarked) [Compound 135] | > 20
CCC(=O)N1CCCC[C@H]1CNc1nc(-c2c[nH]c3ncccc23)ncc1F [Compound 257, (S)-1-(2-((5-fluoro-2-(1H-pyrrolo[2,3-b]pyridin-3-yl)pyrimidin-4-ylamino)methyl)piperidin-1-yl)propan-1-one] | 5 to 20
O=C(c1c(Cl)cccc1Cl)N1CCC[C@H](CNc2nc(-c3c[nH]c4ncc(Cl)cc34)ncc2F)C1 [Compound 96, (R)-(3-((2-(5-chloro-1H-pyrrolo[2,3-b]pyridin-3-yl)-5-fluoropyrimidin-4-ylamino)methyl)piperidin-1-yl)(2,6-dichlorophenyl)methanone] | 5 to 20
O=C(CC1CCCCC1)N1CCCC[C@@H]1CNc1nc(-c2c[nH]c3ncc(Cl)cc23)ncc1F [Compound 294, (R)-1-(2-((2-(5-chloro-1H-pyrrolo[2,3-b]pyridin-3-yl)-5-fluoropyrimidin-4-ylamino)methyl)piperidin-1-yl)-2-cyclohexylethanone] | > 20
O=C(Nc1cccnc1)N1CCC[C@@H](CNc2nc(-c3c[nH]c4ncc(Cl)cc34)ncc2F)C1 [Compound 40, (S)-3-((2-(5-chloro-1H-pyrrolo[2,3-b]pyridin-3-yl)-5-fluoropyrimidin-4-ylamino)methyl)-N-(pyridin-3-yl)piperidine-1-carboxamide] | > 20
CC(C)(C)OC(=O)N1CCC[C@H](CNc2nc(-c3c[nH]c4ncc(N)cc34)ncc2F)C1 [Compound 114, (R)-tert-butyl 3-((2-(5-amino-1H-pyrrolo[2,3-b]pyridin-3-yl)-5-fluoropyrimidin-4-ylamino)methyl)piperidine-1-carboxylate] | > 20
OC1CCCCC1Nc1nc(-c2c[nH]c3ncc(Cl)cc23)ncc1F (centres unmarked) [Compound 13, 2-(2-(5-chloro-1H-pyrrolo[2,3-b]pyridin-3-yl)-5-fluoropyrimidin-4-ylamino)cyclohexanol] | < 5
C[N+](C)(C)CC(=O)N1CCC[C@@H](CNc2nc(-c3c[nH]c4ncc(Cl)cc34)ncc2F)C1 [Compound 43, (S)-2-(3-((2-(5-chloro-1H-pyrrolo[2,3-b]pyridin-3-yl)-5-fluoropyrimidin-4-ylamino)methyl)piperidin-1-yl)-N,N,N-trimethyl-2-oxoethanaminium] | > 20

Same assay, conditions: Influenza A virus, PR/8, MDCK, MDCK cells infected with A/PR/8/34; survival of infected cells; class symbols; read-out: IC50 (mean all)

Structure (SMILES) | IC50 [µM]
CCNC(=O)[C@@H]1CCCC[C@@H]1Nc1nc(-c2c[nH]c3ncc(Cl)cc23)ncc1F [Compound 519, (1R,2S)-2-(2-(5-chloro-1H-pyrrolo[2,3-b]pyridin-3-yl)-5-fluoropyrimidin-4-ylamino)-N-ethylcyclohexanecarboxamide] | 5 to 20
CC(C)CC(=O)N1CCC[C@H](Nc2ccnc(-c3c[nH]c4ncc(Cl)cc34)n2)C1 [Compound 489] | < 5

Same assay, conditions: Influenza A virus, PR/8, MDCK, mean all; A/PR/8/34 infected MDCK cells, CPE assay; read-out: IC50

Structure (SMILES) | IC50 [µM]
CCC(=O)N[C@@H]1CCCC[C@H]1Nc1nc(-c2c[nH]c3ncccc23)ncc1F [Compound 356, N-[(1R,2R)-2-[[5-fluoro-2-(1H-pyrrolo[2,3-b]pyridin-3-yl)pyrimidin-4-yl]amino]cyclohexyl]propanamide] | > 20
CCCS(=O)(=O)N[C@@H]1CCCC[C@H]1Nc1nc(-c2c[nH]c3ncc(Cl)cc23)ncc1F (relative stereo) [Compound 367, N-[trans-2-[[2-(5-chloro-1H-pyrrolo[2,3-b]pyridin-3-yl)-5-fluoro-pyrimidin-4-yl]amino]cyclohexyl]propane-1-sulfonamide] | 5 to 20
CS(=O)(=O)N1CCCC[C@H]1CNc1nc(-c2c[nH]c3ncc(Cl)cc23)ncc1F [Compound 384, (S)-2-(5-chloro-1H-pyrrolo[2,3-b]pyridin-3-yl)-5-fluoro-N-((1-(methylsulfonyl)-piperidin-2-yl)methyl)pyrimidin-4-amine] | < 5
CN(C)C(=O)N[C@@H]1CCCC[C@@H]1Nc1nc(-c2c[nH]c3ncc(Cl)cc23)ncc1F (relative stereo) [Compound 431, 3-[cis-2-[[2-(5-chloro-1H-pyrrolo[2,3-b]pyridin-3-yl)-5-fluoro-pyrimidin-4-yl]amino]cyclohexyl]-1,1-dimethyl-urea] | < 5
O=C(N[C@@H]1CCCC[C@H]1Nc1nc(-c2c[nH]c3ncc(Cl)cc23)ncc1F)c1ccccc1 [Compound 352, N-[(1R,2R)-2-[[2-(5-chloro-1H-pyrrolo[2,3-b]pyridin-3-yl)-5-fluoro-pyrimidin-4-yl]amino]cyclohexyl]benzamide] | > 20
CCCNC(=O)N[C@@H]1CCCC[C@H]1Nc1nc(-c2c[nH]c3ncc(Cl)cc23)ncc1F [Compound 355, 1-[(1R,2R)-2-[[2-(5-chloro-1H-pyrrolo[2,3-b]pyridin-3-yl)-5-fluoro-pyrimidin-4-yl]amino]cyclohexyl]-3-propyl-urea] | > 20
CCCNC(=O)N[C@@H]1CCCC[C@@H]1Nc1nc(-c2c[nH]c3ncccc23)ncc1F (relative stereo) [Compound 347, 1-[cis-2-[[5-fluoro-2-(1H-pyrrolo[2,3-b]pyridin-3-yl)pyrimidin-4-yl]amino]cyclohexyl]-3-propyl-urea] | > 20
CC(C)NC(=O)N1CCCC[C@@H]1CNc1nc(-c2c[nH]c3ncccc23)ncc1F [Compound 371] | > 20
CC(C)OC(=O)N1CCOC(CNc2nc(-c3c[nH]c4ncc(Cl)cc34)ncc2F)C1 (centres unmarked) [Compound 447, Isopropyl 2-((2-(5-chloro-1H-pyrrolo[2,3-b]pyridin-3-yl)-5-fluoropyrimidin-4-ylamino)methyl)morpholine-4-carboxylate] | > 20
O=C(N[C@@H]1CCCC[C@@H]1Nc1nc(-c2c[nH]c3ncc(Cl)cc23)ncc1F)C1CCCC1 (relative stereo) [Compound 335, N-[cis-2-[[2-(5-chloro-1H-pyrrolo[2,3-b]pyridin-3-yl)-5-fluoro-pyrimidin-4-yl]amino]cyclohexyl]cyclopentanecarboxamide] | > 20
O=C(C1CNCCO1)N1CC[C@H](Nc2nc(-c3c[nH]c4ncc(Cl)cc34)ncc2F)C1 (some centres unmarked) [Compound 483] | > 20
CC(=O)N[C@@H]1CCCC[C@H]1Nc1nc(-c2c[nH]c3ncccc23)ncc1F [Compound 348, N-[(1R,2R)-2-[[5-fluoro-2-(1H-pyrrolo[2,3-b]pyridin-3-yl)pyrimidin-4-yl]amino]cyclohexyl]acetamide] | > 20

Same assay, conditions: Influenza A virus, PR/8, MDCK; read-out: IC50 (mean all)

Structure (SMILES) | IC50 [µM]
O=C(Oc1ccc(F)cc1)N1CCC[C@H](CNc2nc(-c3c[nH]c4ncc(Cl)cc34)ncc2F)C1 [Compound 73, (R)-4-fluorophenyl 3-((2-(5-chloro-1H-pyrrolo[2,3-b]pyridin-3-yl)-5-fluoropyrimidin-4-ylamino)methyl)piperidine-1-carboxylate] | 5 to 20
COC(=O)/C=C/CN1CCC[C@@H](CNc2nc(-c3c[nH]c4ncc(Cl)cc34)ncc2F)C1 [Compound 138, (S,E)-methyl 4-(3-((2-(5-chloro-1H-pyrrolo[2,3-b]pyridin-3-yl)-5-fluoropyrimidin-4-ylamino)methyl)piperidin-1-yl)but-2-enoate] | > 20

Same assay, conditions: mean all; A/PR/8/34 infected MDCK cells, CPE assay; read-out: IC50

Structure (SMILES) | IC50 [µM]
O=C(OCC1CCOC1)N1CCC(Nc2nc(-c3c[nH]c4ncc(Cl)cc34)ncc2F)C1 (centres unmarked) [Compound 475] | > 20
